# PMC6089211, “Expression and purification of human diacylglycerol kinase α from baculovirus-infected insect cells for structural studies” (PeerJ, 2018)
# Target: T1, diacylglycerol kinase α (DGKα) (Homo sapiens, UniProt P23743)
# T1 construct: gene DGKA; full-length DGKα (aa 1–735), N-terminal His×6 tag, Sf9-expressed
# Test: Michaelis–Menten kinetics, mixed micelle ADP-Glo assay (Km)
# Assay type: biochemical
# T1 sequence (P23743 whole entry, the tested form may be a part): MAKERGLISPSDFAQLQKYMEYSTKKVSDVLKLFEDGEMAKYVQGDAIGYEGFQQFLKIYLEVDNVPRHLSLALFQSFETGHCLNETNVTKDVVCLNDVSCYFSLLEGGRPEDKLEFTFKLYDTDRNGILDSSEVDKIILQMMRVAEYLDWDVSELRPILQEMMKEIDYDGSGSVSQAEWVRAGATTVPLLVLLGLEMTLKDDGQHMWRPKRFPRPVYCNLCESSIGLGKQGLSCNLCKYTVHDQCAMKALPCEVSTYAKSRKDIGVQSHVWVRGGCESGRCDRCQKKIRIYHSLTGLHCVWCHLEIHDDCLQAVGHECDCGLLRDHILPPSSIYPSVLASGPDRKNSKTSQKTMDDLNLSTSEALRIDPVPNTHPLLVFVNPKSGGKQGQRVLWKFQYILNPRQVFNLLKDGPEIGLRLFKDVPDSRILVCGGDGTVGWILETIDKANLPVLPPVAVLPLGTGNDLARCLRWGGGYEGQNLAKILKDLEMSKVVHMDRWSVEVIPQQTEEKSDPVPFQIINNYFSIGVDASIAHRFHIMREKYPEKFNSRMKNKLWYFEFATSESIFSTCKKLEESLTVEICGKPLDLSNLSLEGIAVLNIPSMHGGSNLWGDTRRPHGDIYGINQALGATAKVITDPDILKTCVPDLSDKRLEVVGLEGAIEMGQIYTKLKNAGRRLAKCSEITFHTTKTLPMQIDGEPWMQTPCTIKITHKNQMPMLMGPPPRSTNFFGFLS
smiles,measurement,value
"CCCCCCCC/C=C\CCCCCCCC(=O)OC[C@H](CO)OC(=O)CCCCCCC/C=C\CCCCCCCC [1,2-dioleolyl-sn-glycerol]",Km,1.06 ± 0.21 mol%
